System: COVID-19
Test: Retrospective analysis of international COVID-19 cohort (TriNetX COVID-19 Research Network), Dupilumab
Type: in vivo, human
Conditions: for Risk Difference (95% CI), Deceased / Risk Difference (95% CI), Ventilated: with vs without Dupilumab
[1] = Diagnoses Matching, 65 patients with Dupilumab
[2] = Dupilumab prescribed prior to COVID-19 diagnosis
[3] = Full Cohort, 81 patients with Dupilumab

In the case of “Dupilumab: anti-human IL4Rα monoclonal antibody that blocks IL-13 and IL-4 signaling; sold as DUPIXENT”, the “Deceased (number of patients) With Dupilumab” value (1:1 Propensity Score Matching, 81 patients) is reported as 0, the “Risk Difference (95% CI), Deceased” value (1:1 Propensity Score Matching) is reported as 12.3% (5.2-19.5) and the “Serum C-Reactive Protein (CRP)” value (COVID-19 patients With Dupilumab) is reported as 25.3 mg/L. The “Deceased (number of patients) With Dupilumab” value [1] was 0, the “Ventilated (number of patients) With Dupilumab” value [1] was 0 and the “Risk Difference (95% CI), Deceased” value (Diagnoses Matching) was 1.83% (1.69-1.97). The “Risk Difference (95% CI), Ventilated” value (Diagnoses Matching) was 0.67% (0.58-0.75), the “risk of death in COVID-19” value [2] was “lower risk” and the “risk of ventilation in COVID-19” value [2] was “lower risk”. For the same substance, the CRP levels (Dupilumab-prescribed patients with COVID-19) was “reduced”, the “Deceased (number of patients) With Dupilumab” value [3] was 0 and the “Ventilated (number of patients) With Dupilumab” value [3] was 0. The “Risk Difference (95% CI), Deceased” value (Full Cohort) was 1.98% (1.94-2.03), the “Risk Difference (95% CI), Ventilated” value (Full Cohort) was 0.37% (0.35-0.39) and the “CRP Sub-cohort Difference” value (With vs Without Dupilumab) was 12.

From patent US20230227546A1, “TYPE 2 CYTOKINES AS PREDICTORS OF DISEASE SEVERITY AND/OR AS T[…] FOR COVID-19” (priority 2020, published 2023)
